The supplement of paper PMC10307832

Key:
Assay in all cases: relative viability (nuclei count vs DMSO), 5 days (fraction); higher = more cells survive
[1] = compound: C1=CC2=NC=CN=C2C=C1/C=C/3\C(=O)NC(=O)S3 + COc1cc2c(Oc3ccc(NC(=O)C4(C(=O)Nc5ccc(F)cc5)CC4)cc3F)ccnc2cc1OCCCN1CCOCC1 [Foretinib] (partner 0.25 µM)
Outline: (§1)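 Five library-drug doses in √10 steps were combined with a fixed anchor-drug dose, or a single drug was given alone, by pin tool to lung cancer cell lines in 1536-well plates the day after seeding. Nuclei were stained and counted after 5 days. Relative viability is the nuclei count in treated wells over that in vehicle wells, taken as the median of duplicate plates.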

[2] = compound: CCN1CCN(c2ccc(Nc3cc(N(C)C(=O)Nc4c(Cl)c(OC)cc(OC)c4Cl)ncn3)cc2)CC1 [BGJ398] + COc1cccc2cc(-c3nc([C@H]4CC[C@H](C(=O)O)CC4)n4ncnc(N)c34)[nH]c12 [OSI-027] (partner 0.5 µM)
Outline: as §1

[3] = compound: CCN1CCN(c2ccc(Nc3cc(N(C)C(=O)Nc4c(Cl)c(OC)cc(OC)c4Cl)ncn3)cc2)CC1 [BGJ398] + Nc1nc2[nH]cc(CCc3ccc(C(=O)N[C@@H](CCC(=O)O)C(=O)O)cc3)c2c(=O)[nH]1 [Pemetrexed] (partner 0.2 µM)
Outline: as §1

[4] = compound: CCN1CCN(c2ccc(Nc3cc(N(C)C(=O)Nc4c(Cl)c(OC)cc(OC)c4Cl)ncn3)cc2)CC1 [BGJ398] + CS(=O)(=O)CCNCc1ccc(-c2ccc3ncnc(Nc4ccc(OCc5cccc(F)c5)c(Cl)c4)c3c2)o1 [Lapatinib] (partner 2 µM)
Outline: as §1

## NCI-H2228
[1]; first compound 0.02 µM
  relative viability: 0.834
[1]; first compound 0.06325 µM
  relative viability: 1.05
[1]; first compound 0.2 µM
  relative viability: 0.961
[1]; first compound 0.6325 µM
  relative viability: 0.841
[1]; first compound 2 µM
  relative viability: 0.749
[2]; first compound 0.01 µM
  relative viability: 0.525
[2]; first compound 0.03162 µM
  relative viability: 0.535
[2]; first compound 0.1 µM
  relative viability: 0.67
[2]; first compound 0.3162 µM
  relative viability: 0.501
[2]; first compound 1 µM
  relative viability: 0.717
[3]; first compound 0.01 µM
  relative viability: 0.312
[3]; first compound 0.03162 µM
  relative viability: 0.367
[3]; first compound 0.1 µM
  relative viability: 0.377
[3]; first compound 0.3162 µM
  relative viability: 0.342
[3]; first compound 1 µM
  relative viability: 0.299
[4]; first compound 0.01 µM
  relative viability: 1.01
[4]; first compound 0.03162 µM
  relative viability: 1.24
[4]; first compound 0.1 µM
  relative viability: 0.742
[4]; first compound 0.3162 µM
  relative viability: 1
[4]; first compound 1 µM
  relative viability: 1.04

## NCI-H2347
[1]; first compound 0.02 µM
  relative viability: 0.843
[1]; first compound 0.06325 µM
  relative viability: 0.77
[1]; first compound 0.2 µM
  relative viability: 0.948
[1]; first compound 0.6325 µM
  relative viability: 0.86
[1]; first compound 2 µM
  relative viability: 0.634
[2]; first compound 0.01 µM
  relative viability: 0.228
[2]; first compound 0.03162 µM
  relative viability: 0.557
[2]; first compound 0.1 µM
  relative viability: 0.447
[2]; first compound 0.3162 µM
  relative viability: 0.413
[2]; first compound 1 µM
  relative viability: 0.434
[3]; first compound 0.01 µM
  relative viability: 0.4
[3]; first compound 0.03162 µM
  relative viability: 0.462
[3]; first compound 0.1 µM
  relative viability: 0.427
[3]; first compound 0.3162 µM
  relative viability: 0.43
[3]; first compound 1 µM
  relative viability: 0.375
[4]; first compound 0.01 µM
  relative viability: 0.913
[4]; first compound 0.03162 µM
  relative viability: 1.02
[4]; first compound 0.1 µM
  relative viability: 0.944
[4]; first compound 0.3162 µM
  relative viability: 0.926
[4]; first compound 1 µM
  relative viability: 0.893

## NCI-H2405
[1]; first compound 0.02 µM
  relative viability: 1.06
[1]; first compound 0.06325 µM
  relative viability: 1.12
[1]; first compound 0.2 µM
  relative viability: 1.13
[1]; first compound 0.6325 µM
  relative viability: 1.03
[1]; first compound 2 µM
  relative viability: 0.838
[2]; first compound 0.01 µM
  relative viability: 0.644
[2]; first compound 0.03162 µM
  relative viability: 0.724
[2]; first compound 0.1 µM
  relative viability: 0.664
[2]; first compound 0.3162 µM
  relative viability: 0.666
[2]; first compound 1 µM
  relative viability: 0.655
[3]; first compound 0.01 µM
  relative viability: 1.05
[3]; first compound 0.03162 µM
  relative viability: 1.15
[3]; first compound 0.1 µM
  relative viability: 1.09
[3]; first compound 0.3162 µM
  relative viability: 1.3
[3]; first compound 1 µM
  relative viability: 1.02
[4]; first compound 0.01 µM
  relative viability: 1.15
[4]; first compound 0.03162 µM
  relative viability: 1.32
[4]; first compound 0.1 µM
  relative viability: 1.05
[4]; first compound 0.3162 µM
  relative viability: 1.07
[4]; first compound 1 µM
  relative viability: 0.857

## NCI-H3122
[1]; first compound 0.02 µM
  relative viability: 0.963
[1]; first compound 0.06325 µM
  relative viability: 0.985
[1]; first compound 0.2 µM
  relative viability: 0.917
[1]; first compound 0.6325 µM
  relative viability: 0.867
[1]; first compound 2 µM
  relative viability: 0.96
[2]; first compound 0.01 µM
  relative viability: 0.91
[2]; first compound 0.03162 µM
  relative viability: 1
[2]; first compound 0.1 µM
  relative viability: 0.941
[2]; first compound 0.3162 µM
  relative viability: 1
[2]; first compound 1 µM
  relative viability: 1.05
[3]; first compound 0.01 µM
  relative viability: 0.206
[3]; first compound 0.03162 µM
  relative viability: 0.193
[3]; first compound 0.1 µM
  relative viability: 0.192
[3]; first compound 0.3162 µM
  relative viability: 0.188
[3]; first compound 1 µM
  relative viability: 0.202
[4]; first compound 0.01 µM
  relative viability: 0.97
[4]; first compound 0.03162 µM
  relative viability: 1.03
[4]; first compound 0.1 µM
  relative viability: 1.03
[4]; first compound 0.3162 µM
  relative viability: 1.07
[4]; first compound 1 µM
  relative viability: 1.08

## PC-3 [JPC-3]
[1]; first compound 0.02 µM
  relative viability: 0.997
[1]; first compound 0.06325 µM
  relative viability: 1.14
[1]; first compound 0.2 µM
  relative viability: 1.02
[1]; first compound 0.6325 µM
  relative viability: 1
[1]; first compound 2 µM
  relative viability: 1.06
[2]; first compound 0.01 µM
  relative viability: 0.738
[2]; first compound 0.1 µM
  relative viability: 0.76
[2]; first compound 0.3162 µM
  relative viability: 0.578
[2]; first compound 1 µM
  relative viability: 0.676
[3]; first compound 0.01 µM
  relative viability: 1.16
[3]; first compound 0.1 µM
  relative viability: 0.766
[3]; first compound 1 µM
  relative viability: 0.992
[4]; first compound 0.01 µM
  relative viability: 0.44
[4]; first compound 0.1 µM
  relative viability: 0.412
[4]; first compound 0.3162 µM
  relative viability: 0.478
[4]; first compound 1 µM
  relative viability: 0.348

## PC-14
[1]; first compound 0.02 µM
  relative viability: 0.934
[1]; first compound 0.06325 µM
  relative viability: 1.07
[1]; first compound 0.2 µM
  relative viability: 0.961
[1]; first compound 0.6325 µM
  relative viability: 1.01
[1]; first compound 2 µM
  relative viability: 0.893
[2]; first compound 0.01 µM
  relative viability: 0.781
[2]; first compound 0.03162 µM
  relative viability: 0.16
[2]; first compound 0.1 µM
  relative viability: 1.07
[2]; first compound 0.3162 µM
  relative viability: 0.464
[2]; first compound 1 µM
  relative viability: 1.07
[3]; first compound 0.01 µM
  relative viability: 0.13
[3]; first compound 0.03162 µM
  relative viability: 0.132
[3]; first compound 0.1 µM
  relative viability: 0.131
[3]; first compound 1 µM
  relative viability: 0.151
[4]; first compound 0.01 µM
  relative viability: 0.282
[4]; first compound 0.03162 µM
  relative viability: 0.255
[4]; first compound 0.1 µM
  relative viability: 0.352
[4]; first compound 0.3162 µM
  relative viability: 0.251
[4]; first compound 1 µM
  relative viability: 0.31

## RERF-LC-KJ
[1]; first compound 0.02 µM
  relative viability: 0.831
[1]; first compound 0.06325 µM
  relative viability: 0.825
[1]; first compound 0.2 µM
  relative viability: 0.874
[1]; first compound 0.6325 µM
  relative viability: 0.814
[1]; first compound 2 µM
  relative viability: 0.695
[2]; first compound 0.01 µM
  relative viability: 0.587
[2]; first compound 0.03162 µM
  relative viability: 0.576
[2]; first compound 0.1 µM
  relative viability: 0.654
[2]; first compound 0.3162 µM
  relative viability: 0.573
[2]; first compound 1 µM
  relative viability: 0.506
[3]; first compound 0.01 µM
  relative viability: 0.436
[3]; first compound 0.03162 µM
  relative viability: 0.431
[3]; first compound 0.1 µM
  relative viability: 0.37
[3]; first compound 0.3162 µM
  relative viability: 0.49
[3]; first compound 1 µM
  relative viability: 0.408
[4]; first compound 0.01 µM
  relative viability: 0.86
[4]; first compound 0.03162 µM
  relative viability: 0.88
[4]; first compound 0.1 µM
  relative viability: 0.908
[4]; first compound 0.3162 µM
  relative viability: 0.924
[4]; first compound 1 µM
  relative viability: 0.724

## SK-LU-1
[1]; first compound 0.02 µM
  relative viability: 0.861
[1]; first compound 0.06325 µM
  relative viability: 0.968
[1]; first compound 0.2 µM
  relative viability: 0.751
[1]; first compound 0.6325 µM
  relative viability: 0.785
[1]; first compound 2 µM
  relative viability: 0.791
[2]; first compound 0.01 µM
  relative viability: 0.333
[2]; first compound 0.03162 µM
  relative viability: 0.4
[2]; first compound 0.1 µM
  relative viability: 0.362
[2]; first compound 0.3162 µM
  relative viability: 0.272
[2]; first compound 1 µM
  relative viability: 0.35
[3]; first compound 0.01 µM
  relative viability: 0.866
[3]; first compound 0.03162 µM
  relative viability: 1
[3]; first compound 0.1 µM
  relative viability: 1.05
[3]; first compound 0.3162 µM
  relative viability: 0.936
[3]; first compound 1 µM
  relative viability: 1.07
[4]; first compound 0.01 µM
  relative viability: 0.878
[4]; first compound 0.03162 µM
  relative viability: 1.07
[4]; first compound 0.1 µM
  relative viability: 0.979
[4]; first compound 0.3162 µM
  relative viability: 0.702
[4]; first compound 1 µM
  relative viability: 0.945

## SK-MES-1
[1]; first compound 0.02 µM
  relative viability: 0.875
[1]; first compound 0.06325 µM
  relative viability: 1.05
[1]; first compound 0.2 µM
  relative viability: 0.976
[1]; first compound 0.6325 µM
  relative viability: 0.804
[1]; first compound 2 µM
  relative viability: 0.669
[2]; first compound 0.01 µM
  relative viability: 0.589
[2]; first compound 0.03162 µM
  relative viability: 0.693
[2]; first compound 0.1 µM
  relative viability: 0.594
[2]; first compound 0.3162 µM
  relative viability: 0.565
[2]; first compound 1 µM
  relative viability: 0.69
[3]; first compound 0.01 µM
  relative viability: 0.84
[3]; first compound 0.03162 µM
  relative viability: 0.999
[3]; first compound 0.1 µM
  relative viability: 0.888
[3]; first compound 0.3162 µM
  relative viability: 1.02
[3]; first compound 1 µM
  relative viability: 0.898
[4]; first compound 0.01 µM
  relative viability: 0.414
[4]; first compound 0.03162 µM
  relative viability: 0.44
[4]; first compound 0.1 µM
  relative viability: 0.448
[4]; first compound 0.3162 µM
  relative viability: 0.396
[4]; first compound 1 µM
  relative viability: 0.376

## SW 1573
[1]; first compound 0.02 µM
  relative viability: 0.893
[1]; first compound 0.06325 µM
  relative viability: 1.22
[1]; first compound 0.2 µM
  relative viability: 0.911
[1]; first compound 0.6325 µM
  relative viability: 0.804
[1]; first compound 2 µM
  relative viability: 0.487
[2]; first compound 0.01 µM
  relative viability: 0.611
[2]; first compound 0.03162 µM
  relative viability: 0.766
[2]; first compound 0.1 µM
  relative viability: 0.703
[2]; first compound 0.3162 µM
  relative viability: 0.572
[2]; first compound 1 µM
  relative viability: 0.734
[3]; first compound 0.01 µM
  relative viability: 0.817
[3]; first compound 0.03162 µM
  relative viability: 0.833
[3]; first compound 0.1 µM
  relative viability: 0.83
[3]; first compound 0.3162 µM
  relative viability: 0.748
[3]; first compound 1 µM
  relative viability: 0.944
[4]; first compound 0.01 µM
  relative viability: 1.03
[4]; first compound 0.03162 µM
  relative viability: 1.12
[4]; first compound 0.1 µM
  relative viability: 1.08
[4]; first compound 0.3162 µM
  relative viability: 1.02
[4]; first compound 1 µM
  relative viability: 0.984
